In patent US6392049B1, “Process for preparing 2,4-dihydroxypyridine and 2,4-dihydroxy-3-nitropyridine” (Aventis Pharmaceuticals Inc., priority 1996, dated 2002):
Like-named read-outs stand apart in the source and are kept apart here.

What was measured:
[1] = target: T1, A1 receptor (Rattus norvegicus, UniProt P25099); assay: A1 adenosine receptor binding, displacement of 3H-CHA, whole rat brain membranes; conditions: 3H-CHA displacement, 25° C., 60 minutes
T1 construct: using a membrane preparation of whole rat brain; from tissue; host or cells: whole rat brain membranes
T1 sequence (P25099 1-326): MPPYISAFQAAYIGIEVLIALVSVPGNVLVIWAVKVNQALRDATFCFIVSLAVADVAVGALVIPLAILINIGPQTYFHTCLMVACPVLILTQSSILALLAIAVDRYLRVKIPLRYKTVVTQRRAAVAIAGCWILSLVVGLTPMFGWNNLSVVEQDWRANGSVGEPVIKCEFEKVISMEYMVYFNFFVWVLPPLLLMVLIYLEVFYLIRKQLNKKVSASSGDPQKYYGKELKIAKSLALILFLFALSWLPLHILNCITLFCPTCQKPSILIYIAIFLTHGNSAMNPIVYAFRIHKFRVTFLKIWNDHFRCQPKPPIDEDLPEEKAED
Method: Non-specific binding is assessed in the presence of 1 mM theophylline.
(§1) The assays are run in glass test tubes in duplicate at 25° C. Once the membranes are added, the tubes are vortexed and incubated at 25° C. for 60 minutes (A1 assay) or 90 minutes (A2 assay) on a rotary shaker. The assay tubes are vortexed halfway through the incubation and again near the end. The assays are terminated by rapid filtration through 2.4 cm GF/B filters using a Brandel Cell Harvestor. The test tubes are washed three times with cold 50 mM tris-HCl (pH 7.7 or 7.4), with filtration being completed within 15 seconds. The damp filter circles are placed in glass scintillation vials filled with 10 ml of Aquasol II (New England Nuclear). The vials are allowed to shake overnight on a rotary shaker and are placed into a liquid scintillation analyzer for two minute counts. IC50 values for receptor binding, i.e. the concentration at which a compound of Formula I displaced the radiolabeled standard, are obtained using a curve-fitting computer program (RS/1, Bolt, Beranek and Newman, Boston, Mass.).

[2] = target: T2, A2 receptor (Rattus norvegicus, UniProt P30543); assay: A2 adenosine receptor binding, displacement of 3H-CGS 21680, rat brain striatum membranes
T2 construct: using membranes from rat brain striatum; from tissue; host or cells: rat brain striatum membranes
Method: Non-specific binding is assessed in the presence of 20 μm 2-chloroadenosine.
as §1

[3] = test system: swine coronary arteries; assay: In vitro vasorelaxation in isolated swine coronary arteries; format: cell-based
Method: Swine coronary arteries are obtained from a local slaughter house, dissected carefully and cleaned of fat, blood and adhering tissue. Rings approximately 2-3 mm wide are cut and transferred to water-jacketed tissue baths (10 mL) filled with warm (37° C.), oxygenated (O2/CO2:95%/5%) Krebs-Henseleit buffer and mounted on L-shaped hooks between stainless steel rods and a force transducer. […] PGF2a, before being exposed to 3 μM PGF2a.

[4] = test system: normotensive anesthetized rat; assay: Mean arterial blood pressure and heart rate in normotensive anesthetized rat; format: in vivo; conditions: for Anesthetized Rat HR/ED25: intravenous dose lowering heart rate by 25%; for Anesthetized Rat MAP/ED25: intravenous dose lowering mean arterial pressure by 25%
Method: Normotensive rats are anesthetized with sodium pentobarbital (50 mg/kg, i.p.) and placed on a heated surgical table. Cannulas are inserted into the femoral artery and veined to allow the measurement of arterial pressure and to facilitate the intravenous administration of test compounds. The animals are allowed to equilibrate for 10 minutes after surgery. Mean arterial pressure is continuously measured and recorded and heart rate is monitored using the arterial pressure pulse to trigger a cardiotachometer. After baseline parameters are established and recorded, increasing doses (1, 3, 10, 30, 100, 300 and 1000 μg/kg) of the compound of Formula I to be tested are administered intravenously. Maximal changes in the cardiovascular parameters are observed after each dose of the adenosine agonist. Only one compound is administered per rat.

[5] = test system: rat adipocytes; assay: Antilipolytic activity in rat adipocytes (in vitro lipolysis assay, glycerol production); format: cell-based; conditions: for EC50: read-out: EC50 (50% inhibition of glycerol production); for inhibition at 1 µM: read-out: % Inhibition of glycerol production, 1 μM
Method: Adipose tissue is removed from anesthetized rats and rinsed twice in incubation medium (2.09 g sodium bicarbonate and 0.04 g EDTA, disodium salt, in 1 L Krebs buffer). Each rat (300-350g) yields approximately 4 ml of adipose tissue. The adipose tissue (35 mL) is cut into small pieces with scissors and washed with incubation medium (50 mL). The mixture is poured into the barrel of a 50 mL syringe to which is attached a short piece of clamped tubing instead of a needle. The aqueous phase is allowed to drain. A second wash with incubation medium is passed through the syringe. The tissue is added to 50 mL of collagenase solution (collagenase (90 mg), bovine serum albumin (BSA) (500 mg), and 0.1 M calcium chloride solution (1 mL), in incubation medium (50 mL)) in a 1 L bottle. The mixture is shaken in an environmental at 37 ° C. for about 60 minutes under an atmosphere of 95% oxygen/5% carbon dioxide to effect digestion of the tissue. The dispersed cells are poured through 2 layers of cheese cloth into a 100 mL plastic beaker. The undigested clumps in the cloth are rinsed once with incubation medium (20 mL). The cells in the beaker are centrifuged in 2 plastic tubes for 30 seconds at room temperature at 300 rpm. The aqueous phase is aspirated from beneath the loosely packed layer of floating fat cells and discarded. The adipocytes are gently poured into a 250 mL plastic beaker containing 100 mL of rinse solution (1 g BSA per 100 mL incubation medium). After gentle stirring the centrifugation step is repeated. Another wash with rinse solution follows. The cells are pooled and their volume is estimated with a graduated cylinder. The adipocytes are diluted in twice their volume of assay buffer (incubation medium (120 mL), BSA (1.2 g), pyruvic acid (13 mg)).
The assay is performed in 20 mL plastic scintillation vials and the total assay volume is 4.2 ml. Assay buffer (2.5 mL), diluted adipocytes (1.5 mL), and a solution of the compound to be tested (12.3 μL) adenosine agonist (12.3 μL; varying concentration) is incubated in the environmental shaker for 15 minutes, then the reaction is started with norepinephrine solution (41.2 μL) (10 nM, in a carrier solution containing water (100 mL), BSA (4 mg), and 0.1 M EDTA (20 μL))and adenosine deaminase (1 μg/ml, 41.2 μL). After sixty minutes in the shaker the reaction is terminated by putting the vials on ice. […] The hard lipid layer is removed by aspiration and the aqueous layer is assayed for glycerol (400 μL of sample). The positive control is done in the absence of any adenosine agonist, substituting water in place of the solution to be tested.

[6] = 3H-CGS 21680 displacement, rat brain striatum membranes, 25° C., 90 minutes, read-out: Adenosine Receptor Binding Activity/IC50 (nM) A2
[7] = 50% reduction in tension of rings contracted with 3 μM PGF2a, read-out: Vasorelaxation in Swine Coronary Artery/IC50
[8] = Sus scrofa, read-out: Vasorelaxation in Swine Coronary Artery/IC50 (μM)
[9] = Adipocyte, rat adipocytes, norepinephrine-stimulated
[10] = Sus scrofa, read-out: Vasorelaxation (IC50)

T2 sequence (P30543 whole entry): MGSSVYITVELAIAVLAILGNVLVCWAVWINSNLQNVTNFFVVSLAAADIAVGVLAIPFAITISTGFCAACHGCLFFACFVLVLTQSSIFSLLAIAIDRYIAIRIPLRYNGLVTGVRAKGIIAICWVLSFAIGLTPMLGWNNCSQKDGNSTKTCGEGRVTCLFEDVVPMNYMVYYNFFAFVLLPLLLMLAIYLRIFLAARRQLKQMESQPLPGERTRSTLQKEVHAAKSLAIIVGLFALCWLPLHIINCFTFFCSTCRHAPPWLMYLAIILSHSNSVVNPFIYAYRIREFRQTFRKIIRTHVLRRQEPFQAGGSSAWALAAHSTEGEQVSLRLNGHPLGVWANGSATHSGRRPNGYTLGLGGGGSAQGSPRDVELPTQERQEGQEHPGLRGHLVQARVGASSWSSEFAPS

Row | Compound | IC50 [1] [nM] | IC50 [2, 6] [nM] | IC50 [3, 7] [µM] | Anesthetized Rat HR/ED25 [4] [µg/kg] | Anesthetized Rat MAP/ED25 [4] [µg/kg] | also measured
1 | Cc1ncsc1CCNc1ncnc2c1ncn2[C@@H]1O[C@H](CO)[C@@H](O)[C@H]1O [Example 12, N^6-[2-(4′-methylthiazol-5′-yl)-ethyl]adenosine] | 23 | 224 | 0.5 | 17 | 4 | –
2 | CCNC(=O)[C@H]1O[C@@H](n2cnc3c(N)ncnc32)[C@H](O)[C@@H]1O [NECA, N-ethylcarboxamido-adenosine] | – | – | – | – | – | EC50 ([5]; Rattus norvegicus, Adipocyte): 2.5 nM
3 | CCNC(=O)[C@H]1C[C@@H](n2cnc3c(N[C@H](C)Cc4ccc(Cl)s4)ncnc32)[C@@H]2OC(=S)O[C@@H]21 [Example 46, (2S)-2a,3a-dihydroxy-4β-[N6-[2-(5-chloro-2-thienyl)-(1R)-1-methylethyl]amino-9-adenyl]cyclopentane-1β-N-ethylcarboxamide-2,3-thiocarbonate] | 13.5 | 81 | – | – | – | IC50 [3, 8]: 3.52 µM; EC50 [5, 9]: 4 nM
4 | OC[C@H]1O[C@@H](n2cnc3c(N[C@@H]4CCCC[C@H]4c4cccs4)ncnc32)[C@H](O)[C@@H]1O (relative stereo) [Example 7, N^6-[trans-2-(thiophen-2-yl)-cyclohex-1-yl]adenosine] | 3.5 | 28 | – | 18 | 6 | IC50 [3, 8]: 4 µM
5 | OC[C@H]1O[C@@H](n2cnc3c(NCCNc4nc5ccccc5s4)ncnc32)[C@H](O)[C@@H]1O [Example 9, N^6-[2-(2′-aminobenzothia-zolyl)ethyl]adenosine] | 4 | 1000 | 11.9 | 4 | 5 | –
6 | OC[C@H]1O[C@@H](n2cnc3c(N[C@@H]4CC=CC[C@H]4c4ccsc4)ncnc32)[C@H](O)[C@@H]1O (relative stereo) [Example 8, N^6-[trans-2-(thiophen-3-yl)-cyclohex-4-en-1-yl]adenosine] | 5 | 138 | – | 23 | 10 | –
7 | CO[C@@H]1[C@H](O)[C@@H](CO)O[C@H]1n1cnc2c(N[C@H](C)Cc3ccc(Cl)s3)ncnc21 [Example 48, N^6-[2-(5-chloro-2-thienyl)-(1R)-1-methylethyl]-2′-O-methyladenosine] | 8.35 | 1440 | – | – | – | EC50 [5, 9]: 1.86 nM
8 | CCNC(=O)[C@H]1C[C@@H](n2cnc3c(NCCc4cccs4)ccnc32)[C@H](O)[C@@H]1O (racemic) [Example 30, (±)-N6-[1-(thiopheny-2-yl)ethan-2-yl]-N′-1-deazaaristeromycin-5′-N-ethyl carboxamide] | 562 | > 1000 | – | >10 | 6 | IC50 [3, 8]: 12.1 µM
9 | CCNC(=O)[C@H]1O[C@@H](n2cnc3c(NCCNc4nc5ccccc5s4)ncnc32)[C@H](O)[C@@H]1O [Example 23] | 0.32 | 891 | 4.4 | 7 | 6 | –
10 | C[C@H](Cc1ccccc1)Nc1ncnc2c1ncn2[C@@H]1O[C@H](CO)[C@@H](O)[C@H]1O [R-PIA, R-phenylisopropyladenosine, reference compound] | – | – | – | – | – | IC50 ([3]; literature compounds, Table V, methods as above, unit inferred, read-out: Vasorelaxation (IC50)): 0.76 µM; EC50 ([5]; rat adipocytes, norepinephrine-stimulated): 1 nM
11 | OC[C@H]1O[C@@H](n2cnc3c(NCCc4nccs4)ncnc32)[C@H](O)[C@@H]1O [Example 13, N^6-[2-(2′-thiazolyl)ethyl]-adenosine] | 41 | 191 | 0.24 | >10 | 3 | –
12 | CCNC(=O)[C@H]1O[C@@H](n2cnc3c(N)nc(NCCc4ccc(CCC(=O)O)cc4)nc32)[C@H](O)[C@@H]1O [CGS21680, 2-[[2-[4-[2-carboxethyl)phenyl]ethyl]amino]-N-ethylcarboxamidoadenosine] | – | – | – | – | – | IC50 [3, 10]: 0.08 µM; inhibition at 1 µM ([5]; Rattus norvegicus, Adipocyte): 0%; antilipolytic activity ([5]; statement in words): do not exhibit antilipolytic activity
13 | OC[C@H]1O[C@@H](n2cnc3c(NC4CCCC4)ncnc32)[C@H](O)[C@@H]1O [CPA, N-cyclopentyladenosine] | – | – | – | – | – | IC50 [2]: 1580 nM; IC50 [3, 10]: 3.18 µM; inhibition at 0.1 µM ([5]; Rattus norvegicus, Adipocyte, read-out: % Inhibition of glycerol production, 0.1 μM): 97%; inhibition at 1 µM ([5]; Rattus norvegicus, Adipocyte): 100%; EC50 ([5]; Rattus norvegicus, Adipocyte): 0.31 nM
14 | C[C@H](Cc1cc2ccccc2s1)Nc1ncnc2c1ncn2[C@@H]1O[C@H](CO)[C@@H](O)[C@H]1O [Example 15, N^6-[(R)-1-methyl-2-(2′benzo-[b]-thiophenyl)ethyl]adenosine] | 4.07 | – | – | 1.4 | 1.5 | IC50 [3, 8]: 2.45 µM
15 | Cc1csc(CNc2ncnc3c2ncn3[C@@H]2O[C@H](CO)[C@@H](O)[C@H]2O)n1 [Example 18, N^6-[2-(4′-methyl-2′-thiazolyl)-methyl]adenosine] | 166 | 52 | 0.46 | >10 | 2 | –
16 | CCNC(=O)[C@H]1C[C@@H](n2cnc3c(NCCc4scnc4C)ncnc32)[C@H](O)[C@@H]1O (relative stereo) [Example 24, (±)-N^6-[2-(4″-methyl-5″-thiazolyl)ethyl]carbocydic adenosine-5′-N-ethyl carboxamide] | > 1000 | > 1000 | – | >10 | 6 | –
